The values that follow come from patent US11345745B2, “Peptide-hinge-free flexible antibody-like molecule” (BIOMOLECULAR HOLDINGS LLC, priority 2011, dated 2022).

The test system of the test is anti-Aβ mAb (6E10). Briefly: Surface plasmon resonance (SPR) binding to immobilized anti-Aβ monoclonal antibody 6E10. As to conditions: 6E10 immobilized on the surface of the SPR chip. For orientation: Surface plasmon resonance follows binding to a sensor surface in real time, without labels.

Method: SPR tests were carried out using a Biacore T100 instrument (Biacore AB, Uppsala, Sweden). A ligand, biotin-labeled 6E10 monoclonal antibody (Covance, Princeton, N.J.), was immobilized at a concentration of 10 mg/ml in PBS onto a CAP sensor chip, Series S, using a Biotin CAPture Kit (GE Healthcare, Piscataway, N.J.). The sensor chip was loaded with a streptavidin capture reagent and regenerated according to the manufacturer's instruction, including an additional regeneration step using 0.25 MNaOH in 30% acetonitrile. Binding of Aβ symmetroadhesins and Aβ peptides was carried out at 25° C. in 10 mM Hepes buffer, pH 7,4, 150 mM NaCl, 3 mM EDTA, and 0.005 vol % Tween-20. Data was evaluated using Biacore T100 Evaluation Software, version 2.0.3.
Accordingly, the present inventors characterized the binding of the Aβ symmetroadhesins of the present inventors to one of these antibodies (6E10) using surface plasmon resonance (SPR). The present inventors compared the binding of Aβ peptides containing the [sequence] sequence (SEQ ID No. 2) which were expected to bind to 6E10 in a one-handed manner.

In the case of “Fc6: recombinant human IgG1 Fc protein beginning at 226CPPC core hinge, N-terminal cysteine, expressed in CHO cells”, the “binding to immobilized 6E10 (observed or not)” value is reported as “No binding”.
